Measurements published in patent EP3366310A1, “L-ARABINOSE AND USES THEREOF AGAINST VIBRIO GENUS BACTERIA” (priority 2017, dated 2018).

What was measured:
V. cholerae N16961 [1] = experiment: Growth curves (optical density at 600 nm over time); format: cell-based, Vibrio cholerae; settings: for effect on V. cholerae growth or morphology: M9-MM, 0.2% of carbon source (Table 1 and Figure 5)
Protocol: Cells were grown at 30°C in M9 minimal medium supplemented with 0.2% fructose and 1 µg/ml thiamine (M9-MM) and M9-MM + 0.1% casamino acids (M9-MM + CAA) in a 96-well microtiter plate and the optical density at 600 nm followed over time in a Tecan plate reader. The growth curves plotted are the average of three replicates; the standard deviation is represented for each time point.
(§1) During experiments in which inventors used an arabinose-inducible promoter to express fluorescently tagged proteins in V. cholerae, they occasionally observed the presence of spherical cells. […]. To better understand this phenotype, inventors grew V. cholerae cells to exponential phase in different liquid media and added increasing concentrations of L-Ara. After a few hours, they inspected the cells morphology at the microscope. […] To see the effect of L-Ara on cell proliferation and growth, overnight cultures were diluted into fresh media containing increasing amounts of the inducer. The OD of these cultures was monitored over time (Figure 2). […].

[2] = system: EPV50 (derived from El Tor isolate N16961); experiment: microbe, parasite or virus in culture; format: cell-based; settings: Vibrio cholerae
Protocol: An EPV50 (derived from El Tor isolate N16961) overnight culture was diluted 200 times in M9-MM, followed by 2 hours of growth at 30°C before 0.2% L-Ara was added and growth continued for other 5 hours. Cells were checked for complete transition to spherical morphology at the microscope. Serial dilutions of t0 (before L-Ara addition) and t1 (after L-Ara treatment) samples were plated on Luria Bertani (LB) agarose plates and the number of colonies used to calculate the CFU at t0 and t1. The ratio CFU t1 / CFU t0 is used to calculate the percentage of cells able to survive L-Ara treatment and revert to proliferating cells.

EPV50 = experiment: Muropeptide analysis (peptidoglycan isolation and UPLC); format: cell-based, Vibrio cholerae
Protocol: EPV50 overnight cultures were diluted 200 times in M9-MM and grown at 30°C. 100 ml were centrifuged after 7 hours of growth and 1L of culture to which 0.2% L-Ara was added after 2 hours was harvested after further 5 hours of incubation. Cells were checked for complete transition to spherical morphology at the microscope. Previously described methods were followed for muropeptide isolation and ultra-performance liquid chromatography (UPLC) analysis [Desmarais et al. and Möll et al.]. After boiling for 2 hours cell pellets with SDS (sodium dodecyl sulfate) the lysates were left stirring over night at room temperature. Cell wall material was pelleted, washed with MQ water to remove the SDS, and digested with pronase E to remove Braun's lipoprotein. Purified peptidoglycan was re-suspended in MQ water and treated overnight with muramidase at 37°C. Soluble muropeptides were reduced with sodium borohydride and the pH then adjusted to 3.5 with phosphoric acid. Samples were injected in an ultra-performance liquid chromatography (UPLC) system to obtain the muropeptide profiles. UPLC separation was performed on a Waters UPLC system equipped with an ACQUITY UPLC BEH C18 Column, 130 Å, 1.7 µm, 2.1 mm × 150 mm (Waters) and a dual wavelength absorbance detector using a linear gradient from buffer A (phosphate buffer 50 mM, pH 4.35) to buffer B (phosphate buffer 50 mM, pH 4.95, methanol 15% (vol/vol)) in a 22-min run with a 0.25 mL/min flow. Elution of muropeptides was detected at 204 nm. Identity of the peaks was assigned by comparison of the retention times and profiles to other chromatograms in which mass spectrometry data has been collected. The relative amounts of the muropeptides and the percentage of cross-linkage were calculated as described by Glauner et al. To calculate the amount of peptidoglycan per cell, the total area of the muropeptides was normalized to the OD of the culture. All values are the means of three independent experiments.

V. cholerae N16961 [3] = experiment: Microscopy inspection of cell morphology (spherical cells) after exposure to carbon sources; format: cell-based, Vibrio cholerae
Protocol: Cells were grown to exponential phase and spread on a 1% (w/v) agar pad (ultrapure agarose, Invitrogen) for analysis. For snapshot analyses, cells images were acquired using a DM6000-B (Leica) microscope. For time-lapse analyses the agarose pad was made using M9-MM and images were acquired using an Evolve 512 EMCCD camera (Roper Scientific) attached to an Axio Observe spinning disk (Zeiss).
as §1

[4] = muropeptide group, M9-MM, 0.2% L-Ara for 5 hours
[5] = M9-MM supplemented with casamino acids (CAA)

SMILES	effect on V. cholerae growth or morphology (V. cholerae N16961 [1])	effect on cell growth (OD) (V. cholerae N16961 [1]; M9-MM and M9-MM+CAA, increasing amounts of L-Ara)	killing at 0.2 % ([2]; 5 h, read-out: cell death) [%]	viability at 0.2 % ([2]; M9-MM, 0.2% L-Ara for 5 hours, ratio CFU t1 / CFU t0, read-out: percentage of survival to L-Ara treatment) [%]	Anhydro-muropeptides (%) (EPV50; [4])	DAP-DAP cross-linked muropeptides (%) (EPV50; [4])	Dimers (%) (EPV50; [4])	Trimers (%) (EPV50; [4])	Monomers (%) (EPV50; muropeptide group, M9-MM, 0.2% L-Ara for 5 hours, mean of three experiments (±SD))	Average glycan chain length (EPV50; peptidoglycan feature, calculated from the number of anhydro-muropeptides, M9-MM, 0.2% L-Ara for 5 hours)	Total cross-linkage (%) (EPV50; peptidoglycan feature, M9-MM, 0.2% L-Ara for 5 hours)	amount of peptidoglycan per cell, times lower than in rod-shaped (non-treated) cells (EPV50; spherical L-Ara-treated bacteria, 0.2% L-Ara)	glycan chains, times shorter than in non-treated cells (EPV50; spherical L-Ara-treated cells, 0.2% L-Ara)	L-Ara concentration at which all cells exhibited the spherical phenotype (V. cholerae N16961 [3]; [5]) [%]	L-Ara concentration at which spherical cells started to appear (V. cholerae N16961 [3]; [5]) [%]	cell morphology (V. cholerae N16961 [3]; M9-MM, 0.02% L-Ara, a few hours)	cell shape (V. cholerae N16961 [3]; M9-MM, 0.1% L-Ara (Figure 1A))	L-Ara concentration at which cells became completely round (V. cholerae N16961 [3]; M9-MM, a few hours) [%]	L-Ara concentration that triggers a toxic response (stop of proliferation, loss of rod-shape) (V. cholerae N16961 [3]; Vibrio cholerae, summary statement) [%]
O=C[C@@H](O)[C@H](O)[C@H](O)CO [D-Arabinose, reference compound]	none of them, including D-Arabinose, affected V. cholerae growth or morphology																		
O=C[C@H](O)[C@@H](O)[C@@H](O)CO [L-Arabinose]	deleterious effects on cell growth or cell morphology	arrested V. cholerae cell growth	~50	~50	21.9 (±3.7) %	7.5 (±0.9) %	47.2 (±3.1) %	12.6 (±4.8) %	40.2 (±3.2) %	7.5 (±1.1)	47.2 (±5.0) %	around 10 times	around 2 times	0.5	0.2	normal rod-shape	spherical shape with a heterogeneous diameter size	0.1	0.02
